“Also recorded” adds a separate entry of the source.
Key:
[1] = system: circulating tumour cells (CTCs); test: Circulating tumour cell test before and after treatment; format: in vivo, human; conditions: for Circulating tumour cells (CTCs): CBD only
Procedure: (§1) The majority of the patients were assessed using a circulating tumour cell test before and after treatment, since this is cheaper than carrying out repeated scans. A number of patients however, as a matter of a normal treatment course, had relevant scans.

tumour = test: Scans and examination of tumour in individual patients; format: in vivo, human
Procedure: as §1
Clear objective evidence of potential efficacy was sought where no other treatment option was available. The most impressive case was a patient with an anaplastic ependymoma, a very rare brain tumour. The patient had had all standard treatments, surgery on two occasions followed by chemotherapy and conformal photon radiotherapy. No further treatment options were available to them when treatment on CBD started.
Another impressive case was a patient with progressive tanycytic ependymoma Grade 2, treated with biopsy and radical radiotherapy for two years. They refused chemotherapy, and had no further treatment options. They started on pharmaceutical-grade synthetic CBD a year after radiotherapy ended, at a dose of 10 drops twice a day, three days on and three days off (10 mg). Prior to this they had been taking, for some time, metformin, mebendazole, doxycycline and atorvastatin from an oncology clinic in Central London.
At that point the patient stopped taking pharmaceutical-grade synthetic CBD and switched to Cannabis oil extract obtained from an internet website. […] They have since restarted pharmaceutical-grade synthetic CBD and throughout continued to take the metformin, atorvastatin, doxycycline and mebendazole. So, the only change had been stopping the pharmaceutical-grade synthetic CBD and switching to Cannabis oil extract obtained on the Internet.

cancer patients = test: Clinical outcome of 119 cancer patients given synthetic pharmaceutical-grade CBD; format: in vivo, human; conditions: for Extended median survival / Stable disease / Died / No effect/result / Slowed progression / Tumour free: number of patients
Procedure: Patients were given synthetic, pharmaceutical-grade CBD (STI Pharmaceuticals), registered under the Pharmaceutical Specials scheme in oily drops at 5% (w/v) in 20 ml bottles. Each drop contained 1 mg of synthetic CBD in neutral oil. This was prescribed on an informed consent basis. 119 cancer patients decided to have this treatment (Table 1), and most of them had metastatic cancers. Of the 119 patients, 28 were given CBD as the only treatment.
as §1
The average dose was 10 mg twice a day. For increased tumour mass, the dose was increased, in some cases up to 30 drops twice a day (30 mg). In a number of cases where stable disease was present, the dose was reduced to five drops twice a day (5 mg). In some cases, Sativex, which is licensed for use in multiple sclerosis, was used in conjunction with CBD as a source of THC, which synergises with CBD. A fraction of the dose used for multiple sclerosis was used. […] Some of the patients reverted to Cannabis oil bought on the Internet, and following this, 80% of these cases relapsed.
(§2) The minimum duration of treatment required for CBD was six months, but many continued for longer. Less than six months appeared inadequate and had little effect, and therefore cases in which CBD was used for less than six months have been defined as un-assessable, and not included in the current cohort of 119 cases.

[2] = system: adenocarcinoma cancer cell line; test: Cell viability by cell counting with trypan blue (Example 2); format: cell-based; conditions: 0.1, 1 or 10 μM, 48 h, FIG. 1
From the text: An adenocarcinoma cancer cell line, growing exponentially, was reset at a concentration of 1×10^4/ml and allowed to adhere overnight.

pERK = pERK western blotting relative to GAPDH (Example 3); format: cell-based; conditions: 100 nM, 1 μM or 10 μM, 48 h, FIG. 2, higher levels of CBD
Procedure: An adenocarcinoma cell line, growing exponentially, was reset at a concentration of 1×10^4/ml and allowed to adhere overnight. Cannabidiol (CBD) was added at 100 nM, 1 μM, or 10 μM, and cells were harvested for standard western blotting techniques after 48 h. Immunoprobing was performed using anti-pERK antibodies, and the densities of each band determined. These values were then expressed relative to a GAPDH loading control.

[3] = Side effects / tolerated dose in patients; format: in vivo, human; conditions: cancer patients, up to 30 mg twice a day; maximum tolerated dose unable to be defined
From the text: as §2

[4] = Glioblastoma multiforme, 7 total cases
[5] = Miscellaneous cancers, 15 total cases
[6] = Non-Hodgkin's lymphoma, 8 total cases
[7] = Non-small cell lung, 2 total cases
[8] = Total of all cancer types, 119 total cases

SMILES: C=C(C)[C@@H]1CCC(C)=C[C@H]1c1c(O)cc(CCCCC)cc1O [CBD, cannabidiol]
- Circulating tumour cells (CTCs), first tests ([1]; 62/female breast cancer, CBD as only treatment, when first seen): tests which showed 10.6 cells per 7.5 ml. Subsequent tests 9 months later, 12 months later, two years later and
- Circulating tumour cells (CTCs) ([1]; 62/female breast cancer, 9 months later): 7.3 cells/7.5 ml
- Circulating tumour cells (CTCs) ([1]; 62/female breast cancer, 12 months later): 6.8 cells/7.5 ml
- Circulating tumour cells (CTCs) ([1]; 67/female lobular breast cancer, 12 months later): 7.5 cells/7.5 ml
- Circulating tumour cells (CTCs) ([1]; 67/female lobular breast cancer, 18 months later): 6.8 cells/7.5 ml
- Circulating tumour cells (CTCs) ([1]; 67/female lobular breast cancer, 30 months later): 3.0 cells/7.5 ml
- Circulating tumour cells (CTCs), initial ([1]; 67/female lobular breast cancer, initial): method of treatment. Initial CTCs were 9.3 cells per 7.5 ml. Follow-up measurements 12 months later, 18 months
- Circulating tumour cells (CTCs), initial ([1]; 72/male prostate cancer, initial value before CBD effect): 8.1 cells/7.5 ml
- Circulating tumour cells (CTCs) ([1]; breast cancer, three years later): 3.9 cells/7.5 ml
- Circulating tumour cells (CTCs) ([1]; breast cancer, two years later): 5.0 cells/7.5 ml
- Circulating tumour cells (CTCs), first reduction ([1]; patient prostate cancer, CBD alone 10 mg twice a day, three days on/off): 5.9 cells/7.5 ml
- Tumour diameter in left breast (tumour; 65/female breast cancer, initially 15 cm, CBD plus half course of radiotherapy, last appointment): treatment course. They have continued on CBD alone and on their last appointment the tumour in their left breast was 2 cm
- Axillary nodes (tumour; 65/female breast cancer, initially palpable left axillary nodes, last appointment): cm in diameter, with no palpable axillary nodes.
- Subsequent scans (tumour; 68/female breast cancer with bone metastases, CBD following local radiotherapy): subsequent scans showed stable disease. They have had no treatment other than CBD following radiotherapy.
- Subsequent scans (tumour; person, anaplastic ependymoma, CBD only treatment): disease stability
- Decrease of tumour volume (scan) (tumour; person, anaplastic ependymoma, CBD only treatment, after ten months): ~60%
- Scan result (tumour; person, tanycytic ependymoma Grade 2, 10 mg twice a day three days on/off, six months): tumour reduction
- Clinical status (cancer patients; 62/female breast cancer, CBD only, no symptoms): currently stable
- Time to death (cancer patients; 65/female oesophageal cancer, CBD only treatment, expected survival of three months): weight. They died 14 months later.
- Clinical condition (cancer patients; 65/female oesophageal cancer, CBD only treatment, six months later, regained weight): treatments and investigations. We last saw their six months later when they were looking well and had in fact regained
- Extended median survival (cancer patients; Anaplastic ependymoma, 3 total cases): 3
- Extended median survival (cancer patients; Bladder, 2 total cases): 1
- Stable disease (cancer patients; Bladder, 2 total cases): 1
- Died (cancer patients; Breast, 39 total cases): 6
- Extended median survival (cancer patients; Breast, 39 total cases): 8
- No effect/result (cancer patients; Breast, 39 total cases): 3
- Slowed progression (cancer patients; Breast, 39 total cases): 3
- Stable disease (cancer patients; Breast, 39 total cases): 21
- Tumour free (cancer patients; Breast, 39 total cases): 7
- Effect of short treatment duration (cancer patients; CBD used for less than six months): little effect
- Died (cancer patients; Colorectal, 13 total cases): 6
- Extended median survival (cancer patients; Colorectal, 13 total cases): 9
- No effect/result (cancer patients; Colorectal, 13 total cases): 1
- Slowed progression (cancer patients; Colorectal, 13 total cases): 1
- Tumour free (cancer patients; Colorectal, 13 total cases): 1
- Extended median survival (cancer patients; DIPG, 1 total case): 1
- Died (cancer patients; [4]): 3
- Extended median survival (cancer patients; [4]): 4
- Tumour free (cancer patients; Head and Neck, 2 total cases): 1
- Died (cancer patients; [5]): 1
- Extended median survival (cancer patients; [5]): 5
- No effect/result (cancer patients; [5]): 1
- Slowed progression (cancer patients; [5]): 1
- Stable disease (cancer patients; [5]): 6
- Tumour free (cancer patients; [5]): 2
- Stable disease (cancer patients; Neuroendocrine, 1 total case): 1
- Died (cancer patients; [6]): 1
- Stable disease (cancer patients; [6]): 6
- Tumour free (cancer patients; [6]): 1
- Died (cancer patients; [7]): 2
- Extended median survival (cancer patients; [7]): 2
- Died (cancer patients; Ovarian, 6 total cases): 3
- Extended median survival (cancer patients; Ovarian, 6 total cases): 5
- Slowed progression (cancer patients; Ovarian, 6 total cases): 1
- Died (cancer patients; Pancreatic, 4 total cases): 2
- Extended median survival (cancer patients; Pancreatic, 4 total cases): 2
- Died (cancer patients; Prostate, 16 total cases): 3
- Extended median survival (cancer patients; Prostate, 16 total cases): 3
- Stable disease (cancer patients; Prostate, 16 total cases): 10
- Died (cancer patients; [8]): 27
- Extended median survival (cancer patients; [8]): 43
- No effect/result (cancer patients; [8]): 5
- Slowed progression (cancer patients; [8]): 8
- Stable disease (cancer patients; [8]): 45
- Tumour free (cancer patients; [8]): 12
- Clinical effectiveness of dosing pattern (cancer patients; three days on and three days off versus continuous dose): more effective
- Viability of cancer cells [2]: inactive; also recorded: unaffected
- pERK relative to controls (pERK): increased
- Side effects [3]: complete absence of side effects

From US20220362168A1, “ADMINISTRATION REGIMES OF CANNABINOIDS IN COMBINATION WITH CHEMOTHERAPEUTICS AGAINST CANCER” (priority 2019, published 2022)
